Results on 22 compounds are retold here after US20060009431A1, “Nitrosated and nitrosylated compounds, compositions and methods use” (NitroMed, Inc., priority 2003, published 2006).

pIC50: −log10 of the molar value.

System in the first data set: not given
Assay: not given
Conditions: not given
By melting point is commonly meant the temperature of the solid-liquid transition. Compound `C[C@]12CC[C@@H]3c4ccc(OC(=O)c5ccccc5)cc4CC[C@H]3[C@@H]1CC[C@@H]2OC(=O)CCC(=O)OCCC1(S)C2CC3CC(C2)CC1C3` (some centres unmarked) came in with a melting point of 140 to 143 °C.
`C[C@]12CC[C@@H]3c4ccc(OC(=O)COCC(=O)O[C@H]5CO[C@H]6[C@@H]5OC[C@H]6O[N+](=O)[O-])cc4CC[C@H]3[C@@H]1CC[C@@H]2O` returned a melting point of 146 to 149 °C.
Still for that read-out and setting: the figure for `C[C@]12CC[C@@H]3c4ccc(OC(=O)CCCC(=O)NCC5(SN=O)CCCCC5)cc4CC[C@H]3[C@@H]1CC[C@@H]2O` is 50 to 52 °C.
On the same count and under the same terms, the result for `C[C@]12CC[C@@H]3c4ccc(O)cc4/C(=N/OCC(=O)N4CCC(CO[N+](=O)[O-])CC4)C[C@H]3[C@@H]1CC[C@@H]2O` reads 143 to 145 °C; that for `C[C@]12CC[C@@H]3c4ccc(O)cc4/C(=N/OCC(=O)NCCO[N+](=O)[O-])C[C@H]3[C@@H]1CC[C@@H]2O`, 140 °C (dec.); that for `C[C@]12CC[C@@H]3c4ccc(O)cc4/C(=N/OCC(=O)N4CCC(CCO[N+](=O)[O-])CC4)C[C@H]3[C@@H]1CC[C@@H]2O`, 102 to 105 °C.
For `CC(C)(SN=O)C1COC(=O)N1CCOC(=O)CO/N=C1\C[C@@H]2[C@H](CC[C@]3(C)[C@@H](O)CC[C@@H]23)c2ccc(O)cc21` (some centres unmarked), the melting point was in the range of 75 to 77 °C.
For `CC(C)(SN=O)C1COC(=O)N1CCOC(=O)COc1ccc2c(c1)CC[C@@H]1[C@@H]2CC[C@]2(C)[C@@H](O)CC[C@@H]12` (some centres unmarked), the melting point worked out at 40 °C.
Same read-out and setting: the result for `CN(CCO[N+](=O)[O-])C(=O)CO/N=C1\C[C@@H]2[C@H](CC[C@]3(C)[C@@H](O)CC[C@@H]23)c2ccc(O)cc21` reads 125 to 127 °C (dec.); that for `COc1ccc(/C=C/C(=O)Nc2ccccc2C(=O)OCC(=O)NCC(C)(C)SN=O)cc1OC` [Example 1, (N-(2-Methyl-2-(nitrosothio)propyl)carbamoyl)methyl 2-((2E)-3-(3,4-dimethoxyphenyl)prop-2-enoylamino)benzoate], 135 to 137 °C; that for `C[C@]12CC[C@@H]3c4ccc(OC(=O)CCC(=O)OCCC5(S)C6CC7CC(C6)CC5C7)cc4CC[C@H]3[C@@H]1CC[C@@H]2O` (stereo partly drawn) [Example 30, (1S,11S,14S,15S,10R)-14-Hydroxy-15-methyltetracyclo(8.7.0.0<2,7>0.0<11,15>)heptadeca-2,4,6-trien-5-yl 2-(2-sulfanyladamantan-2-yl)ethyl butane-1,4-dioate], 133 to 136 °C.
Same read-out and setting: the result for `COc1ccc(C=C2c3ccccc3C(=O)c3ccccc32)cc1OCC(=O)N1CCC(CO[N+](=O)[O-])CC1` [Example 53, 2-(2-Methoxy-5-((10-oxo(9-anthrylidene))methyl)phenoxy)-1-(4-((nitrooxy)methyl)piperidyl)ethan-1-one] reads 63 to 65 °C.

A further data set relates to human coronary artery smooth muscle cells (CASMC). The data set can be described thus: Vascular smooth muscle cell (SMC) antiproliferation assay. It counts as cell-based. The conditions noted are these: Homo sapiens, viable cell count (Trypan Blue exclusion) ~68 hours after compound addition, n=4, read-out: IC 50 for the inhibition of proliferation of vascular smooth muscle cells, Nitrosated and/or Nitrosylated Compound. The method, then:
Suppression of Proliferation of Human Coronary Artery Smooth Muscle Cells (CASMC)
Vascular Smooth Muscle Cell (SMC) Antiproliferation Assay
The cells used in this assay were human coronary artery smooth muscle cells (CASMC) supplied by Clonetics Corp. (San Diego, Calif.). They were maintained in SmGM-2 growth medium (Clonetics Corp.), which consisted of modified MCDB 131 medium supplemented with 5% (v/v) fetal bovine serum (FBS), 0.5 ng/mL human recombinant epidermal growth factor (EGF), 2 ng/mL human recombinant fibroblast growth factor (FGF), 5 μg/mL bovine insulin, 50 μg/mL gentamicin sulfate, and 50 ng/mL amphotericin B under humidified 95% air-5% CO2 at 37° C. Cells were used for experiments up to about 17 cumulative population doublings (i.e., passage 9); at this age they still stained positive for smooth muscle actin, a protein marker for smooth muscle cells.
For the SMC antiproliferation assay, the cells were seeded at 3×10^4 viable cells in 2 mL of SmGM-2 medium per well of a Corning 24 tissue culture well plate (Corning, N.Y.). Stock solutions of the test compounds were prepared just prior to addition to the cells by dissolving in DMSO at a concentration of 1000 times the highest concentration to be assayed. This stock solution was diluted, as required, with DMSO to lower concentrations. On the same day the cells were seeded, but after they had attached and spread out (about 3 hours), each test compound in varying concentrations (2 μL of the diluted stock solutions) was added to four replicate wells (n=4) for each concentration. Control cultures received 2 μL of DMSO per well (n=4). On the following morning, the cultures were examined microscopically and their condition recorded. On the third day after test compound addition (˜68 hours), the cultures were examined microscopically again and the viable cells counted with an hemacytometer following trypsinization with 0.25% trypsin-1 mM EDTA. Trypan Blue dye exclusion was used to discriminate between viable and dead cells. The results were usually presented as % of the control viable cell count (mean±SEM) and were used to determine the IC50 for the inhibition of proliferation of vascular smooth muscle cells.
In the case of `C[C@]12CC[C@@H]3c4ccc(OC(=O)c5ccccc5)cc4CC[C@H]3[C@@H]1CC[C@@H]2OC(=O)CCC(=O)O[C@H]1CO[C@H]2[C@@H]1OC[C@H]2O[N+](=O)[O-]` [Example 15, (1S,11S,14S,15S,10R)-15-Methyl-5-phenylcarbonyloxytetracyclo(8.7.0.0<2,7>0.0<11,15>)heptadeca-2,4,6-trien-14-yl(1S,2S,5S,6R)-6-(nitrooxy)-4,8-dioxabicyclo(3.3.0)oct-2-yl butane-1,4-dioate], the pIC50 is less than 4.10.
Still for that read-out and setting: the figure for `C[C@]12CC[C@@H]3c4ccc(OC(=O)CC5(SN=O)C6CC7CC(C6)CC5C7)cc4CC[C@H]3[C@@H]1CC[C@@H]2O` (stereo partly drawn) [Example 18, (1S,11S,14S,15S,10R)-14-hydroxy-15-methyltetracyclo(8.7.0.0<2,7>0.0<11,15>)heptadeca-2,4,6-trien-5-yl 2-(2-(nitrosothio)adamantan-2-yl)acetate] is 5.05; for `C[C@]12CC[C@@H]3c4ccc(OC(=O)CCC(=O)OCCC5(SN=O)C6CC7CC(C6)CC5C7)cc4CC[C@H]3[C@@H]1CC[C@@H]2O` (stereo partly drawn) [Example 25, (1S,11S,14S,15S,10R)-14-Hydroxy-15-methyltetracyclo(8.7.0.0<2,7>0.0<11,15>)heptadeca-2,4,6-trien-5-yl 2-(2-(nitrosothio)adamantan-2-yl)ethyl butane-1,4-dioate] it is 5.40.
Still for that read-out and setting: the figure for `CC1(C)CCC(CCOC(=O)CCC(=O)Oc2ccc3c(c2)CC[C@@H]2[C@@H]3CC[C@]3(C)[C@@H](O)CC[C@@H]23)(SN=O)CC1` [Example 28i, (1S,11S,14S,15S,10R)-14-Hydroxy-15-methyltetracyclo(8.7.0.0<2,7>0.0<11,15>)heptadeca-2,4,6-trien-5-yl 2-(4,4-dimethyl-1-(nitrosothio)cyclohexyl)ethyl butane-1,4-dioate] is 4.89.

Still in this data set, the particulars now being: viable cell count (Trypan Blue exclusion) ~68 hours after compound addition, n=4.
As for `CN(CCO[N+](=O)[O-])C(=O)CO/N=C1\C[C@@H]2[C@H](CC[C@]3(C)[C@@H](O)CC[C@@H]23)c2ccc(O)cc21` [35 b], the “IC 50 for the inhibition of proliferation of vascular smooth muscle cells, Nitrosated and/or Nitrosylated Compound” value was “Non-inhibitory”.
On to `C[C@]12CC[C@@H]3c4ccc(OC(=O)CC5(S)C6CC7CC(C6)CC5C7)cc4CC[C@H]3[C@@H]1CC[C@@H]2OC(=O)C(F)(F)F` (stereo partly drawn) [Example 17b, (1S,11S,14S,15S,10R)-15-methyl-5-(2-(2-sulfanyladamantan-2-yl)acetyloxy)tetracyclo(8.7.0.0<2,7>0.0<11,15>)heptadeca-2,4,6-trien-14-yl 2,2,2-trifluoroacetate], for which the “IC 50 for the inhibition of proliferation of vascular smooth muscle cells, Non-nitrosated and/or Non-nitrosylated Compound” value is “cytostatic”.
As for `C[C@]12CC[C@@H]3c4ccc(OC(=O)CC5(SN=O)C6CC7CC(C6)CC5C7)cc4CC[C@H]3[C@@H]1CC[C@@H]2OC(=O)C(F)(F)F` (stereo partly drawn) [Example 17c, (1S,11S,14S,15S,10R)-15-Methyl-5-(2-(2-(nitrosothio)adamantan-2-yl)acetyloxy)tetracyclo(8.7.0.0<2,7>0.0<11,15>)heptadeca-2,4,6-trien-14-yl 2,2,2-trifluoroacetate], the “IC 50 for the inhibition of proliferation of vascular smooth muscle cells, Nitrosated and/or Nitrosylated Compound” value was “Non-inhibitory”.

The data set is the same for the next values; noted with them: viable cell count (Trypan Blue exclusion) ~68 hours after compound addition, n=4, read-out: IC 50 for the inhibition of proliferation of vascular smooth muscle cells, Non-nitrosated and/or Non-nitrosylated Compound.
As for `CC1(C)CCC(S)(CCOC(=O)CCC(=O)Oc2ccc3c(c2)CC[C@@H]2[C@@H]3CC[C@]3(C)[C@@H](O)CC[C@@H]23)CC1` [Example 28h, (1S,11S,14S,15S,10R)-14-hydroxy-15-methyltetracyclo(8.7.0.0<2,7>0.0<11,15>)heptadeca-2,4,6-trien-5-yl 2-(4,4-dimethyl-1-sulfanylcyclohexyl)ethyl butane-1,4-dioate], the pIC50 was 4.85.
Turning to `C[C@]12CC[C@@H]3c4ccc(OC(=O)CCC(=O)OCCC5(S)C6CC7CC(C6)CC5C7)cc4CC[C@H]3[C@@H]1CC[C@@H]2O` (stereo partly drawn) [Example 30, (1S,11S,14S,15S,10R)-14-Hydroxy-15-methyltetracyclo(8.7.0.0<2,7>0.0<11,15>)heptadeca-2,4,6-trien-5-yl 2-(2-sulfanyladamantan-2-yl)ethyl butane-1,4-dioate], the pIC50 is 5.40.
Same read-out and setting: the result for `C[C@]12CC[C@@H]3c4ccc(O)cc4C(=NOCC(=O)O)C[C@H]3[C@@H]1CC[C@@H]2O` [Example 35a, 2-(((1S,11S,14S,15S,10R)-5,14-dihydroxy-15-methyltetracyclo(8.7.0.0<2,7>0.0<11-15>)heptadeca-2,4,6-trien-8-ylidene)azamethoxy)acetic acid, reference compound] reads less than 4.10.
On to `C[C@]12CC[C@@H]3c4ccc(OC(=O)CC5(S)C6CC7CC(C6)CC5C7)cc4CC[C@H]3[C@@H]1CC[C@@H]2O` (stereo partly drawn) [Example 49, (1S,11S,14S,15S,10R)-14-hydroxy-15-methyltetracyclo(8.7.0.0<2,7>0.0<11,15>)heptadeca-2,4,6-trien-5-yl 2-(2-sulfanyladamantan-2-yl)acetate], for which the pIC50 is 5.40.
